# Assay results from patent publication US20240342121A1, “THE USE OF BETA-HYDROXYBUTYRATES FOR THE TREATMENT OR PREVENTION OF ANEURYSMS AND DISSECTIONS” (priority 2021, published 2024).
# “Also recorded” adds a separate entry of the source.
# Tests used:
# senescent SMCs [1] = test: Flow cytometry (FACS) apoptosis analysis, PI and Annexin V; assay type: cell-based; conditions: FIGS. 2B, 2C
# Procedure: (§1) FIGS. 2A-2L. (a) Cytotoxicity assay of normal smooth muscle cells (NS) and senescent smooth muscle cells (SMCs). Replicative senescent SMCs (RS) and premature senescent SMCs, stimulated by H2O2 (HP), arsenic (Ars), and Nutlin 3a (Nut) treatment were treated with βHB, s-βHB, and ABT-737. (b) Flow cytometry analysis of apoptosis by βHB or s-βHB in radiation (10 Gy)-induced senescent SMC. (c) Quantitation of apoptotic cell and senescent cell after treating βHB and s-βHB in radiation-induced senescent SMC. (d) Representative aorta image of AII-infused mice with post-treatment of ABT-737, βHB and s-βHB. (e) External diameter of abdominal aorta infused with AII and post-treated with ABT-737 βHB and s-βHB. (f) SA-βGal activity assay of the whole aorta infused with AII, and post-treated with ABT-737, KD, or KE. (g) Quantitation of senescent area on aorta of AII-infused mice, and post-treated with KD, KE and ABT-737. (h) TUNEL assay on the abdominal aorta of AII infused mice, and treated with ABT-737, βHB, or s-βHB. SM-α Actin (SMA) and DAPI are co-stained after TUNEL reaction. (i) Caspase 3 activity assay on normal SMCs (NC) treated with βHB, or s-βHB, and ABT-737 comparing to normal cells pretreated with Nutlin-3a. (j) Caspase 3 activity assay on senescent SMCs (SNC) treated with βHB, or s-βHB, and ABT-737 compared to senescent cells pretreated with pifithrin-α. […]
# [2] = test system: angiotensin II (AII)-induced AAA; test: AII-induced AAA mouse model, post-treatment; assay type: in vivo; conditions: injection every other day for two weeks, FIG. 2E
# senescent SMCs [3] = test: Cellular viability (cytotoxicity) assay of senescent and normal SMCs; assay type: cell-based; conditions: premature senescence by H2O2, Arsenite or Nutlin 3a, FIG. 2A
# Procedure: as §1, with “reaction.” for “reaction. (i) Caspase 3 activity assay on normal SMCs (NC) treated with βHB, or s-βHB, and ABT-737 comparing to normal cells pretreated with Nutlin-3a. (j) Caspase 3 activity assay on senescent SMCs (SNC) treated with βHB, or s-βHB, and ABT-737 compared to senescent cells pretreated with pifithrin-α.”
# The clearance of senescent cells that accumulate during the aneurysm development is required to reduce the volume of aneurysm plaque. Thus, the senotherapeutic potential of βHB to reverse AAA progression was evaluated. […]
# [4] = test system: Oct4 overexpressed senescent SMCs; test: Oct4 overexpressed senescent SMCs (SA β-Gal, Western blot); assay type: cell-based; conditions: Oct4 overexpression by CRISPR-dCas9-VP64, FIG. 14A
# Excerpt: FIGS. 14A-14B show (a) SA β-Gal activity on Oct4 overexpressed SMCs with or without βHB treatment (2 days). Irradiated SMCs were infected by Lentivirus containing Crispr-dCas9-VP64_Oct4 plasmid prior to treating βHB. The arrow indicates localized senescent cell mass. (b) Western blot analysis after lentivirus (Crispr-dCas9-VP64_Oct4) infection into senescent SMCs without βHB treatment for 1 day or 2 days.
# We proposed that Oct4 upregulation in senescence forms senescent spheroid-like cell mass and asymmetric configuration of aneurysms. To validate our central hypothesis, we overexpressed Oct4 in senescent SMCs using the CRISPR-dCas9-VP64 system to determine the role of Oct4. […] Localized increase of senescence may be highly associated with asymmetric dilation of aneurysms. […] We supposed that βHB prevents or reverses Oct4-induced senescence of SMCs, consequently reducing the size of aneurysms. To investigate the role of βHB in aneurysms, we assess the possibility of cellular reprogramming in senescent SMCs in the condition of Oct4 overexpression. […] In particular, a moderate increase of FAP (Fibroblast Activation Protein) provides a potential for reprogramming resulting in transdifferentiation of SMCs to myofibroblast. Recovered SM22 expression in Oct4 overexpressed senescent SMCs supposed that βHB converts the Oct4 function in dedifferentiation into a reprogramming-related role. We considered an βHB-induced epigenetic alteration of senescent cells contributing to Oct4-dependent cellular reprogramming based on this unique observation.
# CaCl2-induced AAA [5] = test: CaCl2-induced AAA animal model, post-treatment; assay type: in vivo, mouse
# Procedure: FIGS. 5A-5J. (a) Representative image of aorta which developed CaCl2)-induced AAA, and post-treated with KD, KE, βHB, s-βHB, or ABT-737. KD is provided to mice for 4 weeks, KE is administrated with drinking water, βHB, s-βHB or ABT-737 are IP injected for 2 weeks with 48h intervals. (b) Incidence of AAA by CaCl2) treatment and proportion of mice recovered from the AAA after post-treatment of KD, KE, βHB and s-βHB for 2 weeks. (c) Time-dependent observation of inner diameter after CaCl2) treatment and post-treatment of KD or KE (28˜56 days after surgery). (d) Comparison of ultrasound images of CaCl2)-induced AAA to the identical aorta post-treated with βHB for 2 weeks. (e) H&E staining of aorta from the mice developed with CaCl2)-induced AAA, and post-treated with KD, KE, βHB, and s-βHB. (f) SA β-Gal activity assay on aorta which developed CaCl2)-induced AAA, and post-treated with KD, KE, βHB, s-βHB, or ABT-737. (g) Quantitation of senescent area on aorta developed with CaCl2)-induced AAA, and post-treated with KD, KE, βHB, s-βHB. (h) Verhoeff Van Gieson/EVG staining of abdominal aorta developed with CaCl2)-induced AAA, post-treated with KD, KE, βHB and s-βHB. (i) Average number of elastic fibers on abdominal aorta presented at FIG. 5H. (j) Measurement of Pulse Wave Velocity (PWV) on CaCl2)-infused mice with post-treatment of KD, KE, βHB, and s-βHB.
# To confirm the possibility that the therapeutic effect of βHB on AAA is not only applied to AII-induced AAA, the CaCl2)-induced AAA animal model was also examined as well (FIG. 5A).
# To further validate the therapeutic efficacy of s-βHB on aneurysms, we used a CaCl2-induced AAA animal model as well as an angiotensin II infusion model. […] Two-way ANOVA, s-βHB vs βHB, #P<0.01, n=10. Since the elimination of senescent SMCs is critical for the recovery of AAA, we investigated that s-βHB is also effective to remove senescent cells in CaCl2)-induced aneurysms. […] Student's T-test for s-βHB vs βHB, ^#P<0.05, n=8.
# [6] = test system: angiotensin II (AII)-induced AAA; test: AII-induced AAA mouse model, post-treatment; assay type: in vivo
# Excerpt: To determine if senescence is a major cause of aneurysm development, the association between senescence and aneurysms using the angiotensin II (AII)-induced AAA model was investigated. Mice were infused AII for four weeks using osmotic mini-pump implantation into Apoe^−/− transgenic mouse.
# To investigate the therapeutic potential of ketotherapy for abdominal aortic aneurysm (AAA), Ketogenic-diet (KD) and Ketone-ester (KE) were provided to angiotensin II (AII)-induced mouse model of AAA (FIG. 6). […] After completing AII infusion, the mice were post-treated with KD and KE for two to four weeks.
# To investigate the time-dependent reduction of aorta diameter, the inner diameter of the aorta using ultrasound analysis was measured.
# [7] = in vivo
# Excerpt: We established an in vivo tolerance test of βHB and s-βHB (FIGS. 9A and 9B). […] The reduction of the inner diameter of the aortic wall is also dramatic in the treatment of s-βHB in FIG. 9F (Two-way ANOVA, ^###P<0.005, n=10).
# CaCl2-induced AAA [8] = test: CaCl2-induced AAA animal model, post-treatment; assay type: in vivo, mouse; conditions: n=10, FIG. 5C
compound,measurement,setting,value
"C[C@H](O)CC(=O)O [s-βHB, (S)-3-hydroxybutyrate]",apoptosis of senescent SMCs,senescent SMCs [1],more effectively than βHB
same,external diameter of the abdominal aorta,[2],significantly reduced; also recorded: strongly reduced
same,number of senescent SMCs versus normal SMCs,senescent SMCs [3],selectively reduced the number of senescent SMCs and not normal SMCs; also recorded: significantly reduced
same,"localized senescence, SA β-Gal activity",[4],significantly reverses or prevents the development of localized senescence
same,recovery from CaCl2-induced AAA,CaCl2-induced AAA [5]; FIGS. 5A and 5B,effectively reversed aneurysms
same,"senescent cells, SA β-gal assay",CaCl2-induced AAA [5]; FIGS. 5F and 5G,significantly reduced senescent cells
same,"TUNEL assay, apoptosis of senescent plaque in the aneurysm",[6]; FIG. 2H,induced targeted apoptosis of senescent plaque
same,lesion area,[6]; FIG. 9G,relatively more effective than βHB
same,body weight and lipids levels,[6]; FIGS. 9H-9J,no significant alteration
same,recovery rate of aneurysms,[6]; compared to βHB,significant improvement in the recovery rate of aneurysms compared to the βHB treatment
same,AAA rate after post-treating,"[6]; incidence of AAA by angiotensin II infusion 67%, n=10, FIG. 9D",27%
same,reduction of the inner diameter of the aortic wall,"[6]; n=10, FIG. 9F",dramatic
same,half-life,[7],2 h
same,time-dependent reduction of the external diameter of the aortic wall,CaCl2-induced AAA [8],more effective than βHB
